Values after ≈ are worked out from the molar mass of the structure shown.
Assay: physchem
Settings: pH 7.4 buffer

Row | Compound | solubility thermodynamic
1 | O=C(c1ccccc1)C1CCN(C(=O)c2ccco2)CC1 | 427 µM (≈ 121 µg/mL)
2 | CC(C)(C)OC(=O)N1CCN(c2cnc(OCc3ccc(S(C)(=O)=O)cc3)cn2)CC1 | 4.7 µM (≈ 2.11 µg/mL)
3 | COCCOc1cc2nncc(Nc3cc(O)c(Cl)cc3F)c2cc1OC | 0.1 µM (≈ 0.0394 µg/mL)
4 | CCOc1ccccc1C(=O)N1CCC(C(=O)c2ccc(F)cc2)CC1 | 5.8 µM (≈ 2.06 µg/mL)
5 | Clc1cccc(CNc2[nH]nc3cccc(Oc4ccccc4)c23)c1 | 1.3 µM (≈ 0.455 µg/mL)
6 | CN(C)CCSc1nc2ccc(Br)cc2cc1-c1ccccc1 | 9.5 µM (≈ 3.68 µg/mL)
7 | CNC(=O)[C@H](Cc1ccccc1)NC(=O)[C@H](CC(C)C)[C@H](CSc1ccccc1)C(=O)NO | 11.2 µM (≈ 5.28 µg/mL)
8 | CS(=O)(=O)c1ccc2c3c([nH]c2c1)CCN(C(=O)[C@@H]1CCCC[C@H]1C(=O)NC1(C#N)CC1)C3 | 912 µM (≈ 427 µg/mL)
9 | COc1cc2c(Nc3cc(CC(=O)Nc4cccc(F)c4F)[nH]n3)ncnc2cc1OCCCN1CCC[C@H]1CO | 1000 µM (≈ 568 µg/mL)
10 | COc1ccc(NCc2ccc(C(=O)Nc3ccccc3N)cc2)cc1OC | 57.5 µM (≈ 21.7 µg/mL)
11 | O=C(Nc1ccccc1)Nc1ccncc1 | 1350 µM (≈ 288 µg/mL)
12 | CN(C)C(=O)[C@H](Cc1ccccc1)NC(=O)c1cc2cc(Cl)sc2[nH]1 | 1.5 µM (≈ 0.564 µg/mL)
13 | COc1cc2cc(O)nc(C)c2cc1OC | 209 µM (≈ 45.8 µg/mL)
14 | C[C@@H](O)C(=O)N1CC=C(c2c(F)cc(N3C[C@H](COc4ccon4)OC3=O)cc2F)CC1 | 25.1 µM (≈ 11.3 µg/mL)
15 | Cc1onc(-c2ccccc2)c1C(=O)OCC(=O)c1ccccc1 | 2 µM (≈ 0.643 µg/mL)
16 | Clc1ccc2c(c1)Nc1ccccc1S2 | 0.7 µM (≈ 0.164 µg/mL)
17 | Cc1c(NC(=O)OC[C@@H]2COCCN2)cn2ncnc(Nc3ccc4c(cnn4Cc4cccc(F)c4)c3)c12 [AC-480] | 1.7 µM (≈ 0.902 µg/mL)
18 | O=C(Nc1ccc(Cl)c(Cl)c1)N1CCN(C[C@@H]2CCCN(CCCc3ccccc3)C2)CC1 | 144 µM (≈ 70.7 µg/mL)
19 | CCN(C(=O)NCc1cccc(C)c1)C1CCN(CCC(c2ccccc2)c2ccccc2)CC1 | 70.8 µM (≈ 33.3 µg/mL)
20 | C[C@@H]1CN(c2ncc(OCc3ccc(S(C)(=O)=O)cc3)cn2)[C@@H](C)CN1C(=O)OC(C)(C)C | 0.9 µM (≈ 0.429 µg/mL)
21 | c1ccc(-c2nnc(-c3ccccc3)o2)cc1 | 15.8 µM (≈ 3.51 µg/mL)
22 | O=S(=O)(CC(c1ccccc1)N1CCCCC1)c1ccc(Cl)cc1 (centres undefined) | 0.9 µM (≈ 0.328 µg/mL)
23 | CCCSc1ncccc1C(=O)NC1CCCCC1 | 81.3 µM (≈ 22.6 µg/mL)

Row | Compound | solubility thermodynamic
24 | COc1ccc(Nc2ncnc3cccc(OC4CCN(C)CC4)c23)cc1Cl | 87.1 µM (≈ 34.7 µg/mL)
25 | CCN(C(=O)Cc1ccc(S(C)(=O)=O)cc1)C1CCN(CCC(c2ccccc2)N2CCN(c3ccccc3)CC2)CC1 (centres undefined) | 692 µM (≈ 417 µg/mL)
26 | C#CCN(Cc1ccc2nc(CO)[nH]c(=O)c2c1)c1ccc(C(=O)NCc2cccc([N+](=O)[O-])c2)cc1 | 0.4 µM (≈ 0.199 µg/mL)
27 | C[C@@H](Cc1ccccc1)Oc1cc(OC2CCOCC2)cc(C(=O)Nc2ccc(C(=O)O)cn2)c1 | 105 µM (≈ 49.9 µg/mL)
28 | CN(C(=O)Cc1ccc(-n2cnnn2)cc1)[C@H]1CCN(Cc2ccc(C(F)(F)F)cc2)C[C@H]1F | 8.1 µM (≈ 3.86 µg/mL)
29 | C[C@@H](c1ccc(-c2ccc(F)cc2F)cc1)N1CC[C@@](CCO)(c2ccc(F)cc2)OC1=O | 5.2 µM (≈ 2.37 µg/mL)
30 | Cc1ccc(Oc2ccc(Nc3ncnc4cccc(O[C@@H](C)C(=O)N5CCOCC5)c34)cc2C)cn1 | 31.6 µM (≈ 15.8 µg/mL)
31 | Cc1ccc(SCc2cc(=O)n(C)[nH]2)cc1 | 1510 µM (≈ 355 µg/mL)
32 | COc1ccc(Cl)c(Nc2ncnc3cc(OCCCN4CCOCC4)c(OC)cc23)c1 | 72.4 µM (≈ 33.2 µg/mL)
33 | CCc1ccc(-c2cc(O)c3ccccc3n2)cc1 | 4 µM (≈ 0.997 µg/mL)
34 | CC(C)CCn1c(Cn2c(=O)n(C3CC3)c(=O)c3ccccc32)nc2cc(CN)ccc21 | 70.8 µM (≈ 30.6 µg/mL)
35 | COc1ccc2c(c1)Sc1ccccc1N2 | 2.4 µM (≈ 0.55 µg/mL)
36 | CC(c1ccccc1)n1cnc2ccccc2c1=O (centres undefined) | 468 µM (≈ 117 µg/mL)
37 | COc1cc(-c2nn[nH]n2)ccc1Cn1ncc2ccc(NC(=O)OC3CCCC3)cc21 | 43.7 µM (≈ 18.9 µg/mL)
38 | c1ccc2oc(-c3cncc(-c4cnn(C5CCNCC5)c4)c3)nc2c1 | 87.1 µM (≈ 30.1 µg/mL)
39 | Nc1n[nH]c(S(=O)(=O)CCCc2ccccc2)n1 | 575 µM (≈ 153 µg/mL)
40 | CNC(=O)[C@H]1CCCN1Cc1cc2c(Nc3cccc(Cl)c3F)ncnc2cc1OC | 282 µM (≈ 125 µg/mL)
41 | CC(C)(C)c1csc(N2CCN(C(=O)[C@@H]3CCCC[C@H]3C(=O)NC3(C#N)CC3)CC2)n1 | 282 µM (≈ 125 µg/mL)
42 | Cc1cc(C)cc(-c2[nH]c3sc(C(C)(C)C(=O)N4C5CCC4CC5)cc3c2CCN2CCC(N3CCOCC3)CC2)c1 | 7.2 µM (≈ 4.24 µg/mL)
43 | CCc1cc(NC(=O)Cc2ccc(Oc3ccnc4cc(OC)c(OC)cc34)cc2OC)[nH]n1 | 11 µM (≈ 5.09 µg/mL)
44 | CC(C)(C)OC(=O)N1CCC(c2ncc(OCc3ccc(S(C)(=O)=O)cc3)cn2)CC1 | 61.7 µM (≈ 27.6 µg/mL)
45 | COc1cc2nccc(Oc3ccc(NC(=O)Nc4cc(C)on4)c(Cl)c3)c2cc1OC [TIVOZANIB] | 9.3 µM (≈ 4.23 µg/mL)
46 | N#Cc1ccccc1C(=O)N1CCC(C(=O)c2ccc(F)cc2)CC1 | 135 µM (≈ 45.4 µg/mL)

Row | Compound | solubility thermodynamic
47 | Cc1ccccc1C(=O)Nc1ccccc1 | 186 µM (≈ 39.3 µg/mL)
48 | CS(=O)(=O)Cc1cc(N2CC3CCC(C2)O3)nc(-c2ccc3[nH]ccc3c2)n1 | 1.5 µM (≈ 0.598 µg/mL)
49 | O=[N+]([O-])c1ccc(CCl)cc1 | 501 µM (≈ 86 µg/mL)
50 | NC(=O)Nc1sc(-c2ccc(OC(F)(F)F)cc2)cc1C(N)=O | 11 µM (≈ 3.8 µg/mL)
51 | C#CCN(Cc1ccc2nc(C)nc(O)c2c1)c1ccc(S(=O)(=O)c2ccccc2)cc1 | 0.1 µM (≈ 0.0444 µg/mL)
52 | O=C(Nc1ccccc1)c1ccc(OCCCN2CCCC2)cc1OCc1ccccc1 | 61.7 µM (≈ 26.6 µg/mL)
53 | c1csc(-c2n[nH]c3c2Cc2ccccc2-3)c1 | 0.6 µM (≈ 0.143 µg/mL)
54 | COCCN(Cc1cc2c(Nc3cccc(Cl)c3F)ncnc2cc1OC)[C@@H](C)C(N)=O | 166 µM (≈ 76.7 µg/mL)
55 | CN(C(=O)Cc1ccc(S(C)(=O)=O)cc1)[C@@H]1CCN(Cc2nc3ccccc3s2)C[C@@H]1F | 9.1 µM (≈ 4.33 µg/mL)
56 | Cc1ncc(-c2nc(Nc3ccc(N4CCN(C(=O)CO)CC4)cc3)ncc2F)n1C(C)C | 158 µM (≈ 71.9 µg/mL)
57 | C[C@@H](Oc1cccc2ncnc(Nc3ccc4c(cnn4Cc4nccs4)c3)c12)C(=O)N(C)C | 29.5 µM (≈ 14 µg/mL)
58 | CS(=O)(=O)Cc1cc(N2CCOCC2)nc(-c2ccc3[nH]ccc3c2)n1 | 9.3 µM (≈ 3.46 µg/mL)
59 | Cc1ccc(C(=O)C(=O)c2ccc(C)cc2)cc1 | 2.1 µM (≈ 0.5 µg/mL)
60 | O=C(Cc1cc(Nc2ncnc3cc(OCCCN4CCC[C@@H]4CO)ccc23)[nH]n1)Nc1cccc(F)c1 | 102 µM (≈ 53.2 µg/mL)
61 | COc1cccc(N(C)c2ccnc(Nc3cc(N4CCOCC4)cc(N4CCOCC4)c3)n2)n1 | 15.5 µM (≈ 7.4 µg/mL)
62 | Cc1ccnc(NC(c2ccccn2)c2c(C)[nH]c3ccccc23)c1 (centres undefined) | 1.4 µM (≈ 0.46 µg/mL)
63 | COc1ccc(Cl)c(Nc2ncnc3cc(OCC4CCN(C)CC4)c(OC)cc23)c1 [AZM-475271] | 324 µM (≈ 143 µg/mL)
64 | COc1ccc(Cn2c(CCc3c[nH]c4ccccc34)nnc2[C@@H](Cc2c[nH]c3ccccc23)NC(=O)C(C)(C)N)cc1 | 182 µM (≈ 105 µg/mL)
65 | CCn1cc(NC(=O)Cc2ncc(Oc3ccnc4cc(OC)ccc34)cc2OC)cn1 | 17.4 µM (≈ 7.54 µg/mL)
66 | N=C(N)c1ccc2cc(C(=O)Nc3ccc4c(c3)OCO4)ccc2c1 | 44.7 µM (≈ 14.9 µg/mL)
67 | O=C(NCCSCc1c(F)cccc1Cl)Nc1ccccc1 | 5.1 µM (≈ 1.73 µg/mL)
68 | COc1cccc(C(=O)N2CCC(C(=O)c3ccc(F)cc3)CC2)c1 | 58.9 µM (≈ 20.1 µg/mL)
69 | CS(=O)(=O)C1(c2cc(N3CCOCC3)nc(-c3cccc(N)c3)n2)CC1 | 13.2 µM (≈ 4.94 µg/mL)
